This note sets out measurements from patent US20230382889A1 (Volastra Therapeutics, Inc., priority 2022, published 2023).

The structures appear in SMILES notation.

Chain of hKIF18A (1-374) (Q8NI77 1-374): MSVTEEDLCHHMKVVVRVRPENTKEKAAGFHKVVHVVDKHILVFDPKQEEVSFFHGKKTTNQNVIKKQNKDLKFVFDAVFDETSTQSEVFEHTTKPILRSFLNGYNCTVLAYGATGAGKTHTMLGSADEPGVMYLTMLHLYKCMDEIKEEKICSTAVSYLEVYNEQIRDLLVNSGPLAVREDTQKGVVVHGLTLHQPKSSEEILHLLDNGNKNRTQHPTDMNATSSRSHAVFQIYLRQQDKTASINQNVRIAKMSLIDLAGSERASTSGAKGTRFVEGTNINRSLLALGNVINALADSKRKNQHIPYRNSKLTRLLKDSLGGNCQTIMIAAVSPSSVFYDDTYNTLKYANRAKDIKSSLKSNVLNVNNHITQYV

The assay addresses hKIF18A (1-374) (Homo sapiens (Human), UniProt Q8NI77). Nature of the assay: Inhibition of KIF18A microtubule-dependent ATPase activity (ADP-Glo). The assay is classed as biochemical. Conditions: 4 nM hKIF18A (1-374). The procedure, abridged:
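Reaction was started with pre-formed microtubules and ATP (0.2 mg/mL and 2.0 mM in the added mix) and run 60 min at 28 °C. ADP was read by ADP-Glo luminescence, and IC50 came from a four-parameter fit of % inhibition.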
On the technique in general: In ADP-Glo the light output rises with the ADP produced.
As to `O=S(=O)(CCO)Nc1ccc(-n2cc(-c3ccc(C4CCCC4)o3)nn2)c(N2CCC3(CC2)CC3)c1` [Compound 126, N-(4-(4-(5-cyclopentylfuran-2-yl)-1H-1,2,3-triazol-1-yl)-3-(6-azaspiro[2.5]octan-6-yl)phenyl)-2-hydroxyethane-1-sulfonamide], half-maximal inhibition (IC50) was put at 71 nM. As to `CS(=O)(=O)Nc1ccc(-n2cc(-c3cccc4c3OC3(CCCCC3)O4)nn2)c(N2CCC3(CC2)CC3)c1` [Compound 128, N-(3-(6-azaspiro[2.5]octan-6-yl)-4-(4-(spiro[benzo[d][1,3]dioxole-2,1′-cyclohexan]-4-yl)-1H-1,2,3-triazol-1-yl)phenyl)methanesulfonamide], half-maximal inhibition (IC50) required 98 nM.

For `O=S(=O)(CCO)Nc1ccc(-c2cn(-c3ccc(F)c(S(=O)(=O)N4CC(F)(F)C4)c3)nn2)c(N2CCC3(CC2)CC3)c1` [Compound 129, N-(4-(1-(3-((3,3-difluoroazetidin-1-yl)sulfonyl)-4-fluorophenyl)-1H-1,2,3-triazol-4-yl)-3-(6-azaspiro[2.5]octan-6-yl)phenyl)-2-hydroxyethane-1-sulfonamide], the IC50 (commonly the concentration needed to halve the response being measured) was found to be 14 nM. `CCS(=O)(=O)Nc1ccc(-n2cc(-c3cc(CO)cc(N4CCC(F)(F)CC4)n3)nn2)c(N2CCC3(CC2)CC3)c1` [Compound 131, N-(4-(4-(6-(4,4-difluoropiperidin-1-yl)-4-(hydroxymethyl)pyridin-2-yl)-1H-1,2,3-triazol-1-yl)-3-(6-azaspiro[2.5]octan-6-yl)phenyl)ethanesulfonamide] showed an IC50 of 29 nM. The result for `CCS(=O)(=O)Nc1ccc(-n2cc(-c3ccc(S(=O)(=O)NC(C)(C)C)o3)nn2)c(N2CCC3(CC2)CC3)c1` [Compound 132, N-(tert-butyl)-5-(1-(4-(ethylsulfonamido)-2-(6-azaspiro[2.5]octan-6-yl)phenyl)-1H-1,2,3-triazol-4-yl)furan-2-sulfonamide] reads 8.5 nM; that for `CCS(=O)(=O)Nc1ccc(-n2cc(-c3cc(C)cc(C(O)C4CCC4)n3)nn2)c(N2CCC3(CC2)CC3)c1` (centres unmarked) [Compound 133, N-(4-(4-(6-(cyclobutyl(hydroxy)methyl)-4-methylpyridin-2-yl)-1H-1,2,3-triazol-1-yl)-3-(6-azaspiro[2.5]octan-6-yl)phenyl)ethanesulfonamide], 12 nM. The result for `CCS(=O)(=O)Nc1ccc(-n2cc(-c3ccc(F)c(C(O)C4CCCC4)n3)nn2)c(N2CCC3(CC2)CC3)c1` (centres unmarked) [Compound 134, N-(4-(4-(6-(cyclopentyl(hydroxy)methyl)-5-fluoropyridin-2-yl)-1H-1,2,3-triazol-1-yl)-3-(6-azaspiro[2.5]octan-6-yl)phenyl)ethanesulfonamide] reads 14 nM; that for `CS(=O)(=O)Nc1ccc(-n2cc(-c3nc(N4CCC(F)(F)CC4)ns3)nn2)c(N2CCC3(CC2)CC3)c1` [Compound 135, N-(4-(4-(3-(4,4-difluoropiperidin-1-yl)-1,2,4-thiadiazol-5-yl)-1H-1,2,3-triazol-1-yl)-3-(6-azaspiro[2.5]octan-6-yl)phenyl)methanesulfonamide], 150 nM. With `O=S(=O)(CCO)Nc1ccc(-n2cc(-c3ccc(F)c(N4CCCCC4)n3)nn2)c(N2CCC3(CC2)CC3)c1` [Compound 136, N-(4-(4-(5-fluoro-6-(piperidin-1-yl)pyridin-2-yl)-1H-1,2,3-triazol-1-yl)-3-(6-azaspiro[2.5]octan-6-yl)phenyl)-2-hydroxyethane-1-sulfonamide], it took 6.5 nM to reach half-maximal inhibition (IC50). Take `CCS(=O)(=O)Nc1ccc(-n2cc(-c3cncc(N4CCC(F)(F)CC4)n3)nn2)c(N2CCC3(CC2)CC3)c1` [Compound 137, N-(4-(4-(6-(4,4-difluoropiperidin-1-yl)pyrazin-2-yl)-1H-1,2,3-triazol-1-yl)-3-(6-azaspiro[2.5]octan-6-yl)phenyl)ethanesulfonamide]: the IC50 came to 6.3 nM. For `CCS(=O)(=O)Nc1ccc(-n2cc(-c3cc(C)cc(C(O)C4CCCC4)n3)nn2)c(N2CCC3(CC2)CC3)c1` (centres unmarked) [Compound 138, N-(4-(4-(6-(cyclopentyl(hydroxy)methyl)-4-methylpyridin-2-yl)-1H-1,2,3-triazol-1-yl)-3-(6-azaspiro[2.5]octan-6-yl)phenyl)ethanesulfonamide] the value was 26 nM; for `Cc1cc(-c2cn(-c3ccc(NS(=O)(=O)C4CC4)cc3N3CCC4(CC3)CC4)nn2)nc(C(O)C2CCCC2)c1` (centres unmarked) [Compound 139, N-(4-(4-(6-(cyclopentyl(hydroxy)methyl)-4-methylpyridin-2-yl)-1H-1,2,3-triazol-1-yl)-3-(6-azaspiro[2.5]octan-6-yl)phenyl)cyclopropanesulfonamide], 40 nM. With `O=S(=O)(CCO)Nc1ccc(-c2cn(-c3ccc(F)c(N4CCC(F)(F)CC4)n3)nn2)c(N2CCC3(CC2)CC3)c1` [Compound 140, N-(4-(1-(6-(4,4-difluoropiperidin-1-yl)-5-fluoropyridin-2-yl)-1H-1,2,3-triazol-4-yl)-3-(6-azaspiro[2.5]octan-6-yl)phenyl)-2-hydroxyethane-1-sulfonamide], it took 18 nM to reach half-maximal inhibition (IC50). The compound `CC1CCN(c2cc(NS(=O)(=O)CCO)ccc2-c2cn(-c3ccc(F)c(N4CCC(F)(F)CC4)n3)nn2)CC1` [Compound 141, N-(4-(1-(6-(4,4-difluoropiperidin-1-yl)-5-fluoropyridin-2-yl)-1H-1,2,3-triazol-4-yl)-3-(4-methylpiperidin-1-yl)phenyl)-2-hydroxyethane-1-sulfonamide] yielded an IC50 of 17 nM. The result for `O=S(=O)(CCO)Nc1ccc(-c2cn(-c3ccc(F)c(N4CC5CC5C4)n3)nn2)c(N2CCC3(CC2)CC3)c1` (centres unmarked) [Compound 142, N-(4-(1-(6-(3-azabicyclo[3.1.0]hexan-3-yl)-5-fluoropyridin-2-yl)-1H-1,2,3-triazol-4-yl)-3-(6-azaspiro[2.5]octan-6-yl)phenyl)-2-hydroxyethane-1-sulfonamide] reads 26 nM; that for `CC1CCN(c2cc(NS(=O)(=O)CCO)ccc2-n2cc(-c3cncc(N4CCC(F)(F)CC4)n3)nn2)CC1` [Compound 143, N-(4-(4-(6-(4,4-difluoropiperidin-1-yl)pyrazin-2-yl)-1H-1,2,3-triazol-1-yl)-3-(4-methylpiperidin-1-yl)phenyl)-2-hydroxyethane-1-sulfonamide], 5.5 nM; that for `O=S(=O)(CCO)Nc1cc(N2CCC3(CC2)CC3)c(-n2cc(-c3cncc(N4CCC(F)(F)CC4)n3)nn2)cc1F` [Compound 144, N-(4-(4-(6-(4,4-difluoropiperidin-1-yl)pyrazin-2-yl)-1H-1,2,3-triazol-1-yl)-2-fluoro-5-(6-azaspiro[2.5]octan-6-yl)phenyl)-2-hydroxyethane-1-sulfonamide], 2.8 nM. `CCS(=O)(=O)Nc1ccc(-n2cc(-c3cnc(C)c(N4CCC(F)(F)CC4)n3)nn2)c(N2CCC3(CC2)CC3)c1` [Compound 145, N-(4-(4-(6-(4,4-difluoropiperidin-1-yl)-5-methylpyrazin-2-yl)-1H-1,2,3-triazol-1-yl)-3-(6-azaspiro[2.5]octan-6-yl)phenyl)ethanesulfonamide]: the IC50 came out at 17 nM.

For `CCS(=O)(=O)Nc1ccc(-n2cc(-c3c[n+]([O-])cc(N4CCC(F)(F)CC4)n3)nn2)c(N2CCC3(CC2)CC3)c1` [Compound 146, 3-(4,4-difluoropiperidin-1-yl)-5-(1-(4-(ethylsulfonamido)-2-(6-azaspiro[2.5]octan-6-yl)phenyl)-1H-1,2,3-triazol-4-yl)pyrazine 1-oxide], the IC50 turned out to be 4.4 nM. `O=S(=O)(CCO)Nc1ccc(-c2cn(-c3ccc(F)c(N4CCCCC4)n3)nn2)c(N2CCC3(CC2)CC3)c1` [Compound 147, N-(4-(1-(5-fluoro-6-(piperidin-1-yl)pyridin-2-yl)-1H-1,2,3-triazol-4-yl)-3-(6-azaspiro[2.5]octan-6-yl)phenyl)-2-hydroxyethane-1-sulfonamide] showed an IC50 of 22 nM.

The compound `CCS(=O)(=O)Nc1ccc(-n2cc(-c3ccc(F)c(N4CCC(F)(F)CC4)n3)nn2)c(N2CCC3(CC2)CC3)c1` [Compound 148, N-(4-(4-(6-(4,4-difluoropiperidin-1-yl)-5-fluoropyridin-2-yl)-1H-1,2,3-triazol-1-yl)-3-(6-azaspiro[2.5]octan-6-yl)phenyl)ethanesulfonamide] yielded an IC50 of 31 nM. Compound `CS(=O)(=O)Nc1ccc(-n2cc(-c3ccc(F)c(N4CCC(F)(F)CC4)n3)nn2)c(N2CCC3(CC2)CC3)c1` [Compound 149, N-(4-(4-(6-(4,4-difluoropiperidin-1-yl)-5-fluoropyridin-2-yl)-1H-1,2,3-triazol-1-yl)-3-(6-azaspiro[2.5]octan-6-yl)phenyl)methanesulfonamide] showed an IC50 of 21 nM. This IC50 and that of the compound before are within 1.5-fold of each other. The result for `O=S(=O)(CCO)Nc1ccc(-n2cc(-c3cncc(OC4CCCC4)n3)nn2)c(N2CCC3(CC2)CC3)c1` [Compound 150, N-(4-(4-(6-(cyclpentyloxy)pyrazin-2-yl)-1H-1,2,3-triazol-1-yl)-3-(6-azaspiro[2.5]octan-6-yl)phenyl)-2-hydroxyethane-1-sulfonamide] reads 6 nM; that for `Cc1cc(-c2cn(-c3ccc(NS(=O)(=O)CCCO)cc3N3CCC4(CC3)CC4)nn2)nc(N2CCC(F)(F)CC2)n1` [Compound 151, N-(4-(4-(2-(4,4-difluoropiperidin-1-yl)-6-methylpyrimidin-4-yl)-1H-1,2,3-triazol-1-yl)-3-(6-azaspiro[2.5]octan-6-yl)phenyl)-3-hydroxypropane-1-sulfonamide], 27 nM; that for `Cc1cc(-c2cn(-c3ccc(NS(=O)(=O)CCO)cc3N3CCC4(CC3)CC4)nn2)nc(CN2CC(F)(F)C2)n1` [Compound 152, N-(4-(4-(2-((3,3-difluoroazetidin-1-yl)methyl)-6-methylpyrimidin-4-yl)-1H-1,2,3-triazol-1-yl)-3-(6-azaspiro[2.5]octan-6-yl)phenyl)-2-hydroxyethane-1-sulfonamide], 14 nM. In turn, `O=S(=O)(CCO)Nc1ccc(-n2cc(-c3ccc(F)c(N4CC5CC5C4)n3)nn2)c(N2CCC3(CC2)CC3)c1` (centres unmarked) [Compound 153, N-(4-(4-(6-(3-azabicyclo[3.1.0]hexan-3-yl)-5-fluoropyridin-2-yl)-1H-1,2,3-triazol-1-yl)-3-(6-azaspiro[2.5]octan-6-yl)phenyl)-2-hydroxyethane-1-sulfonamide] returned a 50% inhibitory concentration (IC50) of 16 nM.
